The source of these data is patent publication US20070015774A1, “Quinazoline derivatives useful in cancer treatment” (Schering Corporation, priority 2005, published 2007).

This experiment addresses GST-p53 DNA binding domain (aa 92-aa 312) (Homo sapiens, UniProt P04637). In words: Scintillation Proximity Assay (SPA), displacement of 3H STANDARD COMPOUND
To be noted: 2 ug/mL; residual total binding of 3H STANDARD COMPOUND
The source says: Most of the oncogenic mutants of the tumor suppressor protein p53 lack sequence specific DNA binding activity at physiological temperature due to conformational changes in the DNA binding domain. Small molecules and peptide which bind to the p53 DNA binding domain stabilize the conformation and restore DNA binding activity to mutant p53 protein (Science 286, 2507-2510, 1999; PNAS, 99, 937-942, 2002). Using ^3H STANDARD COMPOUND (structure shown below; carbon atom with * is the atom labelled), [drawing 1366] a radio labeled small molecule which binds to p53, and the GST-p53 DNA binding domain (aa 92-aa 312), we have developed a quantitative screening assay. The assay is based on Scintillation Proximity Assay (SPA) technology, developed by Amersham Biosciences to measure molecular interactions. Briefly, the complex of GST-p53, ^3H STANDARD and Glutathione-SPA beads (Amersham Biosciences) are incubated with mixing for 1 hr at room temperature in the presence of the novel compounds to be screened. The signal is read on Microbeta. The compounds which have the ability to displace ^3H STANDARD COMPOUND are selected. Such molecules will stabilize the conformation and restore DNA binding activity to mutant p53 protein.
The above assay was used to determine the ability of the compounds of this invention to directly bind to p53 core and restore DNA binding activity to mutant p53 and the results for selected compounds have been given above in various tables.
A letter rating corresponding to % Residual total binding (T) @ 2 ug/mL of drug (i.e., compound of the present invention) from this assay have been assigned as follows: Compounds having % Residual T values of from 0% to less than 20% have been assigned the letter “A”. Compounds having % Residual T values of from 20% to less than 40% have been assigned the letter “B”. Compounds having % Residual T values of from 40% to less than 80% have been assigned the letter “C”. Compounds having % Residual T values of 80% or higher have been assigned the letter “D”. The exact % Residual T values @ 2 ug/mL for some illustrative compounds are shown below: […]
In general terms: Scintillation proximity formats need no separation of bound from free tracer.

Structures are written as SMILES.

Chain of GST-p53 DNA binding domain (aa 92-aa 312) (P04637 92-312): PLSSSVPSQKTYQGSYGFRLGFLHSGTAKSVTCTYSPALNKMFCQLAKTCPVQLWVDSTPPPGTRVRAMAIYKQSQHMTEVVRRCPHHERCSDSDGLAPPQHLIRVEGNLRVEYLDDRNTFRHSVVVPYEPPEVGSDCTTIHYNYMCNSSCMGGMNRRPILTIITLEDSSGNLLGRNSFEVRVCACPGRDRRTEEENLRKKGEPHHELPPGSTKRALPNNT

On to `CN(Cc1ccccc1)Cc1nc2ccccc2c(=O)[nH]1` [Preparative Example 17, 2-[(benzylmethylamino)methyl]-3H-quinazolin-4-one], for which the “% Residual T @ 2 ug/mL according to scintillation proximity assay (SPA)” value was “B (% Residual T values of from 20% to less than 40%)”. Next, `CN(C)CCCNc1nc(CN(C)Cc2ccccc2)nc2ccccc12` [Preparative Example 19, N,N-dimethyl-N′-[2-{(N-methyl-N-benzylamino)methyl}quinazolin-4-yl]propane-1,3-diamine]: “B (% Residual T values of from 20% to less than 40%)”; `CNCc1nc(NCCCN(C)C)c2ccccc2n1` [Preparative Example 20, N,N-DIMETHYL-N′-[2-(METHYLAMINOMETHYL)QUINAZOLIN-4-YL]PROPANE-1,3-DIAMINE]: “C (% Residual T values of from 40% to less than 80%)”. Next, `CN(C)CCC[C@H](N)C(N)=O` [Preparative Example 42, 2(S)-(+)-AMINO-5-DIMETHYLAMINOPENTANAMIDE]: “D (% Residual T values of 80% or higher)”.
